# Test results from a melting point compilation (Tetko et al.; mined from patent text by program, amines drawn as free bases though some values may be those of a salt).
row,SMILES,melting point
1,OCc1nnc(-c2cc3c(OC[C@@H](O)CN4CCC(c5ccc(Cl)c(Cl)c5)CC4)cccc3o2)o1,158 to 160 °C
2,Cc1ccc(Cl)cc1NC(=S)n1c(C)cc2ccccc21,121 to 122 °C
3,CCOc1ccc(C(CC(=O)OC)N2C(=O)c3ccc(N)cc3C2=O)cc1OCC (centres undefined),143 to 145 °C
4,C=C(Cl)COc1ccc(Br)cc1CN(CC)c1ccc(C(=O)O)cn1,207 to 209 °C
5,COC(=O)COc1cc(Cl)c(SCc2cc(-c3ccc(C(F)(F)F)cc3)on2)cc1C,120 to 121 °C
6,CC(=CC(=O)N1CCCC1C(=O)O)C(=O)c1ccc(Br)cc1 (centres undefined),137 to 144 °C
7,O=C(NCl)c1cccc(C(=O)NCl)c1,73.5 to 75 °C
8,O=C1Nc2ccc(Cl)cc2C1(O)c1cccc(F)c1F (centres undefined),248 °C
9,CCn1c(=O)c(-c2c(Cl)cccc2Cl)cc2cnc(Nc3ccc(OC)cc3)nc21,213 to 215 °C
10,Cc1cc(-c2cc3cc(OCCNC[C@H](O)c4cccc(C(F)(F)F)c4)ccc3o2)no1,126 to 127 °C
11,Cc1ccc(-c2ccc3c(c2)C=C(C(=O)Nc2ccc(-c4cccnc4)cc2)CCO3)cc1,214 to 216 °C
12,COCCc1nc2c(N)nc3ccccc3c2n1CC(C)(C)CNC(=O)c1ccccc1,103 to 125 °C
13,O=C1CCCCN1CCc1c[nH]c2ccc(Cl)cc12,155 °C
14,CCC(=O)n1c(=O)oc2ccccc21,88 to 90 °C
15,COc1ccc(S(N)(=O)=O)cc1C(=O)Cl,148 to 150 °C
16,O=S(c1cc(Br)c(-c2ccc(Cl)cc2)[nH]1)C(F)(F)F (centres undefined),177 to 179 °C
17,CN1C(=O)CC(c2ccccc2)C1C(O)c1ccc(C(=O)Nc2ccccc2)s1 (centres undefined),223 to 227 °C
18,COc1cc(C(C)=O)ccc1OCCCCCN1CCC(C(O)(c2ccc(F)cc2)c2ccc(F)cc2)CC1,118 °C
19,Cc1cc2c(c(C)c1N)C(c1ccc(C(C)C)cc1)CS2 (centres undefined),121 to 122 °C
20,CCN(CC)[C@@H]1C(=O)N(C)[C@H]1c1ccccc1 (relative stereo),70 to 71 °C
21,O=C1CCC(N2Cc3cc(CNC(=O)Nc4ccc(-c5ncc[nH]5)cc4)ccc3C2=O)C(=O)N1 (centres undefined),190 to 192 °C
22,CS(=O)(=O)c1ccc(Oc2ccc3[nH]c(C4=NCC(CC(=O)N5CCOCC5)S4)cc3c2)cn1 (centres undefined),168 to 169 °C
23,CCCCOc1ccc(S(=O)(=O)C2(C(=O)O)CCN(CCOc3ccccc3)CC2)cc1,204 °C
24,CC(=O)N[C@H]1CC[C@H](CCN2CCN(c3ncc(C)c4occc34)CC2)CC1,208 °C
25,Cc1nc(C)n(-c2cc(C)c3[nH]c(=O)ccc3c2)c1C#N,334 to 337 °C

row,SMILES,melting point
1,O=C(CCCCOc1ccc(O)cc1)C(F)(F)F,63 to 64 °C
2,CCOC(=O)C(=CNCc1csnn1)C(=O)c1cc(F)c(F)cc1F,176 to 178 °C
3,O=C(Cc1ccccc1)N[C@@H]1C(=O)N[C@@H]1SCC(=O)c1ccccc1,160 to 162 °C
4,COc1ccc(CC(=O)N2CCCCC2CC(c2ccccc2)c2ccccc2)cc1OC (centres undefined),113 to 114 °C
5,COc1ccc(CNc2c(C)c(C)c3oc(C)c(-c4ccc(F)cc4)c3c2C)cc1,100 to 102 °C
6,O=C(N[C@H](Cc1ccc(C(F)(F)F)cc1)[C@@H](O)c1ccc(F)cc1)c1ccc(CO)c2ccccc12 (racemic),202 to 203 °C
7,CC(=O)CCc1ccc2c(c1)Cc1cc(O)ccc1-2,170 °C
8,O=C(N[C@@H](Cc1c[nH]c2ccccc12)C(=O)O)c1cccc(Cl)c1,160 to 161 °C
9,CN(Cc1nc(-c2cc(C(C)(C)C)c(O)c(C(C)(C)C)c2)cs1)C(=O)OC(C)(C)C,126 to 127 °C
10,O=C(Nc1ccccc1)C1CCNCC1,121 to 127 °C
11,CS(=O)c1ccc2c3c(cccc13)C(=O)N2 (centres undefined),178 to 185 °C
12,Cc1nc2ncnn2c(O)c1CCCOCC(C)(C)C,155 to 159 °C
13,CC(C)(C)OC(=O)CN1CCN[C@@H](Cc2ccc(OC(C)(C)C)cc2)C1=O,124 to 126 °C
14,Cc1c(OCc2ccccc2)ccc2c(O)c(C(=O)Nc3cccc(Br)c3)c(=O)oc12,229 to 231 °C
15,CC(c1cc(Cl)ccc1N1CCCCC1C)C(C(N)=O)c1ccc(C(=O)O)cc1 (centres undefined),195 to 198 °C
16,CCCCc1cnc(SC)[nH]c1=O,138 to 140 °C
17,Cc1nc(N2CCN(Cc3ccc(OC(F)(F)F)cc3)C2=O)sc1C(=O)NCc1ccccc1,197 to 198 °C
18,Cc1ccnc2c1nc(COc1ccc(CC3SC(=O)NC3=O)cc1)n2C (centres undefined),205 to 207 °C
19,Cc1cc(C(=O)c2cccc(Cc3ccccc3)c2)c(O)c2ncccc12,123 to 124 °C
20,CC1(C)C2CCC1(CNC(=O)CBr)CC2,89 °C
21,CCCc1nc2c(N)nc3cc(OCc4cccc(N)c4)ccc3c2n1CC(C)C,228 to 230 °C
22,CCCCCNC(=O)Nc1ccc(N(C)C)cc1C(=O)NCC1CCN(C(c2ccccc2)c2ccccc2)CC1,218 °C
23,CCCCCCCCCCC/C=C\c1ccc(C=CC(=O)OC)cc1,60 to 62 °C
24,C=CCCN1C(=O)C2C3CCC(O3)C2C1=O (centres undefined),64 to 65 °C
25,O=C(Nc1ccc2c(c1)OCCO2)NC12CC3CC(CC(C3)C1)C2,230 to 236 °C

row,SMILES,melting point
1,O=C(O)c1cnc2cc(OCc3ccccc3)c(OCc3ccccc3)cn2c1=O,208 °C
2,COc1ccc(NN=C2CCCCC2=O)cc1,177 °C
3,N#Cc1nn(-c2c(Cl)cc(C(F)(F)F)cc2Cl)c(N)c1-c1cccc(Cl)c1,161 to 162 °C
4,Cc1ccccc1-n1cc(-c2ccccc2)c(CBr)n1,67 °C
5,Cc1ccc(-c2c3ccccc3c(-c3ccc(C)cc3)c3cc(Cl)ccc23)cc1,202 to 204 °C
6,CCCCCCCCCCCC1CNc2cc(C(=O)O)ccc21 (racemic),107 to 111 °C
7,CC(C)n1nc(-c2sc(C(=O)NC3CC3)nc2-c2cccc(F)c2)ccc1=O,146 to 147 °C
8,CCc1nc2cc(S(C)(=O)=O)c(Cl)cc2n1-c1ccc(CCNC(=O)NS(=O)(=O)c2ccc(C)cc2)cc1,105 to 118 °C
9,O=c1c2c(O)c(O)ccc2c2cc(O)c(O)cc2n1Cc1ccc(Cl)c(Cl)c1,246 °C
10,CCOc1nc(Cl)nc(N(C)C)n1,124 °C
11,CCN(C#N)C(=O)CCCCC(=O)N(C#N)CC,38.7 to 40.1 °C
12,COc1cc(Cl)c(NS(C)(=O)=O)cc1C(=O)NCC1CCCO1 (centres undefined),159 to 160 °C
13,COc1ccc(CCNc2nc(N)c(N)c(N)n2)cc1,134 to 138 °C
14,CCOC(=O)C(Cc1cc(OC)ccc1OC)C(C)=O (centres undefined),68 to 69 °C
15,O=C(Nc1cc(Cl)ccc1N1CCCCC1)c1cnn2cc(O)cnc12,> 300 °C
16,N#Cc1ccc(OCC(F)(F)C(F)(F)C(F)(F)C(F)(F)COc2ccc([N+](=O)[O-])cc2[N+](=O)[O-])cc1,89 to 90.6 °C
17,CCOC(=O)Cn1ncc2c(Br)c(OC)ccc21,106 to 107 °C
18,CC(=O)OC1CSC(Oc2ccc(S(C)(=O)=O)cc2)C(OC(C)=O)C1OC(C)=O (centres undefined),168 °C
19,Cc1ccncc1Cn1nnnc1-c1cccc(Cl)c1Cl,154 to 156 °C
20,COc1cc(COC2CCN(C(=O)c3ccc([N+](=O)[O-])cc3)CC2)cc(OC)c1OC,124 °C
21,Nc1cc(C(F)(F)F)c(Br)cc1S(=O)(=O)c1ccccc1,169 to 171 °C
22,CC(C)c1cccc2cc3ccccc3cc12,36 to 36.5 °C
23,O=C1c2c(O)ccc(O)c2C(=O)c2c(NCCN(CCO)CCO)ccc(NCCN(CCO)CCO)c21,134 to 136 °C
24,COCOc1cc(/C=C/S(=O)(=O)NC(=O)OC(C)(C)C)n(Cc2ccc(Cl)cc2Cl)n1,139 to 140 °C
25,NC(=O)c1ccc(F)nc1N,198 to 200 °C

row,SMILES,melting point
1,CCOC(Cc1ccc(OCCn2c(CC)nc(-c3ccccc3)cc2=O)cc1)C(=O)O (centres undefined),140 to 142 °C
2,ON=Cc1cc(Br)ccc1Cl,126 to 128 °C
3,COc1ccc(CCc2cc3cc(Br)ccc3o2)cc1,109 to 111 °C
4,CCCOc1ccc(S(=O)(=O)N2CCN(CC)CC2)cc1-c1nc2cc3ncn(Cc4cccc(F)c4)c3cc2c(=O)[nH]1,115 to 117 °C
5,CCCCc1c(-c2cc3ccccc3o2)nc(N)nc1-c1cc2ccccc2o1,142 to 144 °C
6,Cc1[nH]c(=O)[nH]c1C(=O)c1ccccc1,250 to 254 °C
7,CCCCCCCCCCNC(=O)N[C@H]1CCCNC(=O)C1,97 to 98 °C
8,C=CCOC1CC(C)(C)N(c2nc(Cl)nc(Cl)n2)C(C)(C)C1,53 to 55 °C
9,Cc1cc(C)c(-c2cccc3c(O)cc(C)nc23)c(C)c1,> 250 °C
10,CCCCCCCCC(=O)Nc1cccc([N+](=O)[O-])c1,63 to 63.5 °C
11,O=C1c2ccc(Cl)cc2OCc2cccnc21,100 to 102 °C
12,O=C(O)C(Cc1ccccc1)NC(=S)Cc1cccc2ccccc12 (centres undefined),130 to 132 °C
13,CCCNC(=O)C1(CCCCN2CCC(N3Cc4ccccc4C3=O)CC2)C(c2ccccc2)=Cc2ccccc21 (centres undefined),156 to 157 °C
14,O=S(=O)(NCCCCOc1ccc(-n2ccnc2)cc1)c1cccc2nonc12,125 to 126 °C
15,CC(C)C(C)CNC(=O)c1ccc2c(c1)N(C(C)CN1CCCC1)c1ccccc1S2 (centres undefined),138 °C
16,COc1ccc(-n2cc(C(=O)N(CC(=O)O)c3ccc(OCC(C)(C)C)c(C#N)c3)c(C)n2)cc1,98 to 101 °C
17,O=c1c(Cc2ccccc2)c2n(c(=O)n1Cc1ccccc1)CCCS2,110 to 112 °C
18,O=C(CN1CC=C(c2c[nH]c3cc(Cl)ccc23)CC1)Nc1ccccn1,202 to 204 °C
19,CCCc1c(C(=O)C(C)C)c2ccc(C(=O)OC)cc2n1Cc1c(Cl)cccc1Cl,130 to 132 °C
20,COc1cc2nc(N)nc(-c3ccc(I)cc3)c2cc1OC,240 to 242 °C
21,CCOC(=O)COc1cc(OCC(=O)OCC)c2c(C)c(Cc3ccccc3)c(=O)n(Cc3ccccc3)c2c1,113 to 116 °C
22,COC(=O)Cc1ccccc1Oc1cccc(O)c1,115 to 116 °C
23,COc1ccc(S(=O)(=O)Nc2cccnc2Nc2ccncc2)cc1,172 to 173 °C
24,CC(Oc1cc(Oc2ccc(C(F)(F)F)cc2Cl)ccc1C#N)C(N)=O (centres undefined),134 to 137 °C
